Experimental data: patent publication US8563236B2, “Mutational profiles in HIV-1 reverse transcriptase correlated with phenotypic drug resistance” (priority 1999, dated 2013)

Key:
Assay type in all cases: cell-based, HIV-1
[1] = system: variants with the 69S-[S-S] insert plus AZT resistance mutations; experiment: MT-4 cell CPE protection assay, site-directed mutant viruses (group statement)
Description: (§1) MT-4 cells (Harada S., et al, Science 229: 563-566 (1985).) were co-transfected with pol gene PCR fragments and the protease-RT deleted HIV-1 molecular clone, pGEM3ΔPRT, as described. See Hertogs K., et al., Antimicrob. Agents Chemother. 42: 269-276 (1998). […] Phenotypic susceptibility to nucleoside analogues was determined using an MT-4 cell viral cytopathic effect (CPE) protection assay as described. Id. Fold resistance values were derived by dividing the mean IC50 for a patient's recombinant virus by the mean IC50 for wild-type control virus (strain HXB2-D).
Mutations in the RT coding region were created by site-directed mutagenesis of a wild-type HXB2-D EcoRI-PstI restriction enzyme fragment, encompassing the HIV-1 pol gene and cloned into pGEM3 (Promega). Single and multiple nucleotide changes were introduced into RT using the ExSite mutagenesis kit (Strategene). All mutant clones were verified by DNA sequence analysis of the entire RT. PCR fragments were prepared from the mutated clones and the altered RT coding regions were transferred into the HIV-1 HXB2-D genetic background by homologous recombination as described above. The susceptibility of these recombinant viruses to nucleoside analogues was subsequently determined by the MT-4 cell CPE protection assay. Id. […]

[2] = system: samples with AZT and 3TC resistance mutations plus T69A/N or V175M; experiment: Recombinant virus assay, MDR patient-derived recombinant HIV variants
Excerpt: (§2) FIG. 2: Nucleoside analogue susceptibility of MDR patient-derived recombinant HIV variants. Recombinant viruses were produced from patient plasma samples as described in Example 2 and tested for susceptibility to (a) d4T, (b) ddC and (c) ddI. […] Error bars indicate standard errors. Note that the total number (n=310) is higher than the 302 MDR samples described because a small minority were 69D/N and 75M double mutants and are represented in both groups.
as §1
(§3) From this analysis, 302 samples were identified with four-fold or greater increases in IC50 (relative to a wild-type control virus) to at least four of these inhibitors. Thus, a substantial number of MDR viruses were present in the sample population.
Genotypic analysis was performed on all 892 samples by dideoxy-nucleotide sequencing. […]

[3] = system: codon 151 cluster viruses
Excerpt: as §2, §1, §3
(§4) Genotypic analysis was performed on all 892 samples by dideoxy-nucleotide sequencing. […] A comparison of the incidence of specific RT mutations in MDR samples versus non-MDR in the population surveyed is shown in FIG. 1. This analysis highlighted the incidence of the codon 151 mutational cluster in the MDR group. In addition, a novel family of amino acid insertions and rearrangements between codons 67 and 70 were also prevalent in the MDR group. These two patterns of mutations were correlated with high-level phenotypic multi-nucleoside resistance (FIG. 2), 27 samples having the codon 151 cluster and 45 samples having insertions and rearrangements (typically a T69S substitution, followed by insertion of two amino acids).

[4] = system: codon 69 insertion mutants
Excerpt: as §2, §1, §3, §4

[5] = system: HXB2-D virus with T69A or V75M in a background of AZT mutations; experiment: MT-4 cell CPE protection assay, site-directed mutant viruses
Description: as §1
(§5) Mutations in the RT coding region were created by site-directed mutagenesis of a wild-type HXB2-D EcoRI-PstI restriction enzyme fragment, encompassing the HIV-1 pol gene and cloned into pGEM3 (Promega). Single and multiple nucleotide changes were introduced into RT using the ExSite mutagenesis kit (Strategene). All mutant clones were verified by DNA sequence analysis of the entire RT. PCR fragments were prepared from the mutated clones and the altered RT coding regions were transferred into the HIV-1 HXB2-D genetic background by homologous recombination as described above. The susceptibility of these recombinant viruses to nucleoside analogues was subsequently determined by the MT-4 cell CPE protection assay. Id.
To investigate the significance of the observed mutational patterns correlated with MDR virus we constructed a series of viruses by site-directed mutagenesis with specific changes in a defined genetic background (HXB2-D). […] In addition, the potential role of A62V, a substitution also frequently correlated with the insertions was investigated by adding this mutation to a background of 69S-[S-S] plus 210W/215Y.

wild-type HXB2-D virus = experiment: MT-4 cell CPE protection assay, wild-type control virus
Description: (§6) Mutations were created in HIV-1 RT by site-directed mutagenesis and the mutant RT was then transferred into the HXB2-D wild-type virus background. The specific mutations created in this background are indicated. The nucleoside susceptibility of mutant viruses (fold increase in IC50 value relative to wild-type HXB2-D virus control) was assessed as described in ‘Methods’.
as §1, §5

[6] = system: HXB2-D virus with RT 210W, 215Y; experiment: MT-4 cell CPE protection assay, site-directed mutant virus
Description: as §6, §1, §5

[7] = system: HXB2-D virus with RT 69S-[S-S], 210W, 215Y; experiment: as above
Description: as §6, §1, §5

[8] = system: HXB2-D virus with RT 210W, 215Y, 62V; experiment: as above
Description: as §6, §1, §5

[9] = system: HXB2-D virus with RT 69S-[S-S], 210W, 215Y, 62V; experiment: as above
Description: as §6, §1, §5

[10] = system: HXB2-D virus with RT 69S-[S-S]; experiment: as above
Description: as §6, §1, §5

[11] = system: mutants carrying mutation 184V; experiment: Drug susceptibility assay, site-directed mutants (group statement); conditions: high resistance caused by mutation 184V
Description: Phenotypic analysis was performed using the recombinant virus assay. See Kellam, P., and B. A. Larder. Antimicrob Agents Chemother 38:23-30 (1994); Hertogs, K., et al., Agents Chemother. 42:269-276 (1998); Pauwels, R., et al., Abstracts of the 2nd International Workshop on HIV Drug Resistance and Treatment Strategies, Abstr. 51. Lake Maggiore, Italy (1998). Briefly, protease (PR) and reverse transcriptase (RT) coding sequences were amplified from patient-derived viral RNA with HIV-1 specific primers. After homologous recombination of amplicons into a PR-RT deleted proviral clone, the resulting recombinant viruses were harvested, titrated and used for in vitro susceptibility testing to antiretroviral drugs. The results of this analysis were expressed as fold-resistance values, reflecting the fold-increase in mean IC50 (μM) of a particular drug when tested with patient-derived recombinant virus isolates, relative to the mean IC50 (μM) of the same drug obtained when tested with a reference wild-type virus isolate (IIIB/LAI).
For the modeling studies, mutations were generated in the RT gene of HXB2, a wild-type laboratory HIV-1 strain, using the QuikChange^J Site-Directed Mutagenesis Kit, Stratagene^7, Stratagene Cloning systems, La Jolla, Calif., USA.
Two of them carried both 44D/A and 181I, while all but one (SDM23) carried ZDV resistance-correlated mutations. […]

[12] = Human immunodeficiency virus 1, MT4, mean values

| SMILES | susceptibility [1] | level of resistance [2] | mean fold increase in IC50 (resistance) [3] | mean fold increase in IC50 (resistance) [4] | resistance conferred [5] | IC50 (wild-type HXB2-D virus; [12]) | Fold increase in IC50 ([6]; {}) | Fold increase in IC50 ([7]; {}) | Fold increase in IC50 ([8]; {}) | Fold increase in IC50 ([9]; {}) | Fold increase in IC50 ([10]; {}) | resistance (fold) [11] | IC50 (wild-type HXB2-D virus; mean values) | Fold increase in IC50 ([6]; mutant genotype 210W, 215Y, relative to wild-type HXB2-D, mean of two determinations) | Fold increase in IC50 ([7]; mutant genotype 69S-[S-S], 210W, 215Y, relative to wild-type HXB2-D, mean of two determinations) | Fold increase in IC50 ([8]; mutant genotype 210W, 215Y, 62V, relative to wild-type HXB2-D, mean of two determinations) | Fold increase in IC50 ([9]; mutant genotype 69S-[S-S], 210W, 215Y, 62V, relative to wild-type HXB2-D, mean of two determinations) | Fold increase in IC50 ([10]; mutant genotype 69S-[S-S], relative to wild-type HXB2-D, mean of two determinations) |
| --- | --- | --- | --- | --- | --- | --- | --- | --- | --- | --- | --- | --- | --- | --- | --- | --- | --- | --- |
| Cc1cn([C@H]2C[C@H](N=[N+]=[N-])[C@@H](CO)O2)c(=O)[nH]c1=O [AZT, zidovudine] | decreased susceptibility | – | – | – | – | – | – | – | – | – | – | – | – | – | – | – | – | – |
| Cc1cn([C@H]2C=C[C@@H](CO)O2)c(=O)[nH]c1=O [d4T, stavudine] | – | modest levels of resistance | > 10 fold | > 10 fold | little or no resistance | 2.39 µM | 1.1 fold | 4.8 fold | 0.7 fold | 5.2 fold | 2.3 fold | – | – | – | – | – | – | – |
| Nc1ccn([C@H]2CC[C@@H](CO)O2)c(=O)n1 [ddC, zalcitabine] | – | modest levels of resistance | > 10 fold | > 10 fold | little or no resistance | 1.41 µM | 1.2 fold | 4.2 fold | 0.8 fold | 2.7 fold | 2.1 fold | – | – | – | – | – | – | – |
| Nc1ccn([C@@H]2CS[C@H](CO)O2)c(=O)n1 [3TC, lamivudine] | – | – | – | – | – | 1.67 µM | 3.8 fold | 20 fold | 1.3 fold | 15 fold | 6.2 fold | > 62 fold | – | – | – | – | – | – |
| Nc1nc(NC2CC2)c2ncn(C3C=CC(CO)C3)c2n1 (stereo not drawn) [compound 1592, 4-[(2-amino-6-cyclopropyl-amino)-9H-purin-9-yl]-2-cyclopentene-1-methanol] | decreased susceptibility | – | – | – | – | – | – | – | – | – | – | – | 2.9 µM | 1.5 fold | 4.6 fold | 0.7 fold | 5.4 fold | 2.6 fold |
| O=c1[nH]cnc2c1ncn2[C@H]1CC[C@@H](CO)O1 [ddI, didanosine] | – | – | – | – | little or no resistance | 4.6 µM | 1.2 fold | 2.1 fold | 0.5 fold | 1.8 fold | 1.7 fold | – | – | – | – | – | – | – |
